The source of these data is US8309573B2, “Salt of isoquinoline compound and crystal thereof” (Mitsubishi Tanabe Pharma Corporation, priority 2007, dated 2012).

Where only a bound is given, the exact number is not on record here.

One data set in a line: physchem. To be noted: water, thermodynamic from solid. The procedure:
This was subjected to ultrasonication on a water bath for 10 min, and gently shaken in a twin mixer (TM-282, AS ONE Corporation) at room temperature for 1 hr. After shaking, the mixture was centrifuged by a portable ultracentrifuge (10000 rpm×10 min., MC-150, TOMY SEIKO CO., LTD.) and the supernatant was filtered (Millex-LH, Millipore Corporation).

Data set [1] can be described thus: Chemical stability comparison test (one month preservation, purity by HPLC). Type of data set: physicochemical. Here is the method:
The sample after preservation was measured for chemical purity by HPLC. The HPLC conditions are shown below. • apparatus: SHIMADZU Corporation • column: Inertsil ODS-3V (GL Sciences Inc.) inner diameter 4.6 mm and length 150 mm • column oven: 40° C. • detection wavelength: 234 nm • measurement operation: a sample (about 1 mg) was measured in a vial container for HPLC, dissolved in a mixture (1 mL) of water/acetonitrile=1:1, and analyzed under the following conditions. • eluent composition: SOLUTION A 0.1% trifluoroacetic acid/water • SOLUTION B 0.1% trifluoroacetic acid/acetonitrile • gradient: SOLUTION B concentration: 5→100% (60 min) • mobile phase flow rate: 1.0 mL/min • injection volume: 5 μL
An increase rate of related substances after one month preservation was determined from the peak area in the HPLC chromatogram.

The nature of data set [2]: Hygroscopicity comparison test (adsorption isotherm curve measurement). It is filed as physicochemical. To be noted: 0-95% RH, 25° C. The procedure:
An adsorption isotherm curve measurement was performed under the following conditions.
apparatus: DVS-1 (sms Ltd., UK)
measurement temperature: 25° C.
measurement operation: a sample was measured in a sample cup, sample weight was measured by successively changing the relative humidity at 50→0→95→0→50% RH.
The smaller weight change due to humidity is an important factor for the management of charge amount of the bulk drug for pharmaceutical products.

Where [3] appears, read: preserved one month at 40° C. 75% RH.

By solubility is commonly meant the concentration that dissolves in the medium under given conditions. The low end stands for little dissolved substance, the high end for much dissolved substance. With `Cc1cccc2c(=O)[nH]c(CCN3CCC[C@@H]3CO)cc12` [free form, (R)-3-[2-(2-hydroxymethylpyrrolidin-1-yl)ethyl]-5-methyl-2H-isoquinolin-1-one], the solubility in the data set “physchem” was not above 1 mg/mL. The “Increase rate of related substances (%)” value in data set [1] (preserved one month at 30° C.) was “+0.16%”; in data set [1] (preserved one month at 40° C.) it was “+0.18%”; in data set [1] (setting [3]), “+0.28%”; in data set [1] (preserved one month at 50° C.) it was “+1.30%”.

Compound `Cc1cccc2c(=O)[nH]c(CCN3CCC[C@@H]3CO)cc12.Cl.O.O` [monohydrochloride dihydrate, (R)-3-[2-(2-hydroxymethylpyrrolidin-1-yl)ethyl]-5-methyl-2H-isoquinolin-1-one monohydrochloride dihydrate] returned a solubility in the data set “physchem” of 45 mg/mL. Further, in data set [2], the moisture absorption is given as 11 % (w/w) and the “moisture absorption, corresponding hydrated water” value is given as 2 hydrated water.

As to “anhydrous (R)-3-[2-(2-hydroxymethylpyrrolidin-1-yl)ethyl]-5-methyl-2H-isoquinolin-1-one monophosphate”, the moisture absorption in data set [2] is 0.5 % (w/w). Also, the “moisture absorption, corresponding hydrated water” value in data set [2] is 0.1 hydrated water. For the same compound, the “Increase rate of related substances (%)” value in data set [1] (preserved one month at 30° C.) was −0.01%; in data set [1] (preserved one month at 40° C.) it was −0.01%; in data set [1] (setting [3]) it was −0.02%; in data set [1] (preserved one month at 50° C.), −0.01%.
